Results taken from patent US10959432B2, “Microbiocidal oxadiazole derivatives” (Syngenta Participations AG, priority 2016, dated 2021).

What was measured:
Uromyces viciae-fabae = test: Fungicidal activity against Uromyces viciae-fabae / field bean / leaf disc preventative (faba-bean rust); type: in vivo; conditions: foliar, 288 h, 100 ppm in the applied formulation, field bean leaf discs, preventative (inoculated two hours after application), assessed 12 days after application, read-out: disease control compared to untreated control leaf discs
Protocol: Leaf disks or leaf segments of various plant species are cut from plants grown in a greenhouse. The cut leaf disks or segments are placed in multiwell plates (24-well format) onto water agar. The leaf disks are sprayed with a test solution before (preventative) or after (curative) inoculation. Compounds to be tested are prepared as DMSO solutions (max. 10 mg/ml) which are diluted to the appropriate concentration with 0.025% Tween20 just before spraying. The inoculated leaf disks or segments are incubated under defined conditions (temperature, relative humidity, light, etc.) according to the respective test system. A single evaluation of disease level is carried out 3 to 14 days after inoculation, depending on the pathosystem. Percent disease control relative to the untreated check leaf disks or segments is then calculated. General Examples of Liquid Culture Tests in Well Plates:
Example 5: Fungicidal Activity Against Uromyces viciae-fabae/Field Bean/Leaf Disc Preventative (Faba-Bean Rust)
Field bean leaf discs are placed on water agar in multiwell plates (96-well format) and 10 μl of the formulated test compound diluted in acetone and a spreader pipetted onto the leaf disc. Two hours after application leaf discs are inoculated by spraying a spore suspension on the lower leaf surface. The leaf discs are incubated in a climate cabinet at 22° C. with 18 hour day and 70% relative humidity. The activity of a compound is assessed as percent disease control compared to untreated when an appropriate level of disease damage appears in untreated check leaf disks (12 days after application).
The following compounds at 100 ppm in the applied formulation give at least 80% disease control in this test when compared to untreated control leaf discs under the same conditions, which show extensive disease development.

Phakopsora pachyrhizi = test: Fungicidal activity against Phakopsora pachyrhizi / soybean / leaf disc preventative (Asian soybean rust); type: in vivo; conditions: foliar, 200 ppm in the applied formulation, soybean leaf disks, preventative (inoculated one day after application), assessed 12 to 14 days after application, read-out: disease control compared to untreated control leaf disks
Summary of the method: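 Preventative test: compound applied to soybean leaf discs a day before spore inoculation of the lower surface. Discs kept at 20° C and 75% rh, first 24-36 h in darkness, then under 12 h light/day; disease control relative to untreated discs rated 12 to 14 days post-application.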

[1] = system: Puccinia recondita f. sp. tritici; test: Fungicidal activity against Puccinia recondita f. sp. tritici / wheat / leaf disc preventative (brown rust); type: in vivo; conditions: foliar, 200 ppm in the applied formulation, wheat leaf segments cv. Kanzler, preventative (inoculated 1 day after application), assessed 7 to 9 days after application, read-out: disease control compared to untreated control leaf disks
Summary of the method: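 Preventative leaf-segment test: compound sprayed at 200 ppm onto wheat (cv. Kanzler) segments, brown rust spores applied 1 day after. Kept at 19C and 75% rh under 12 h light/dark cycles; disease control versus untreated check read 7 to 9 days post-application.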

[2] = system: Puccinia recondita f. sp. tritici; test: Fungicidal activity against Puccinia recondita f. sp. tritici / wheat / leaf disc curative (brown rust); type: in vivo; conditions: foliar, 200 ppm in the applied formulation, wheat leaf segments cv. Kanzler, curative (applied 1 day after inoculation), assessed 6 to 8 days after application, read-out: disease control compared to untreated control leaf disks
Summary of the method: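 Curative test: compound, diluted from DMSO stock into water, applied one day after spore inoculation of wheat (cv. Kanzler) leaf segments kept on agar in darkness at 19° C. and 75% RH. Climate-cabinet incubation (19° C., 75% RH, 12 h photoperiod); disease control relative to untreated read 6–8 days post-application.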

[3] = system: Glomerella laqenarium (Colletotrichum lagenarium); test: Fungicidal activity against Glomerella lagenarium (Colletotrichum lagenarium) liquid culture / cucumber / preventative (anthracnose); type: cell-based; conditions: Colletotrichum orbiculare; 20 ppm in the applied formulation; liquid culture in PDB, 24° C., 3 to 4 days after application; read-out: disease control compared to untreated control (inhibition of growth measured photometrically)
Summary of the method: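 Test compound, applied from DMSO solution, is combined with PDB containing conidia taken from cryogenic storage. After 3–4 days at 24 °C, growth is measured photometrically and antifungal activity expressed as percent relative to untreated control.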

O=C(NC1CCCCCCC1)c1ccc(-c2noc(C(F)(F)F)n2)cc1 [Compound 2a.5, N-cyclooctyl-4-[5-(trifluoromethyl)-1,2,4-oxadiazol-3-yl]benzamide]
≥ 80%: pest or weed control at 100 ppm (Uromyces viciae-fabae) | pest or weed control at 200 ppm (Phakopsora pachyrhizi)

CC(C)(C)c1cc(NC(=O)c2ccc(-c3noc(C(F)(F)F)n3)cc2)[nH]n1 [Compound 5a.2, N-(3-tert-butyl-1H-pyrazol-5-yl)-4-[5-(trifluoromethyl)-1,2,4-oxadiazol-3-yl]benzamide]
≥ 80%: pest or weed control at 100 ppm (Uromyces viciae-fabae) | pest or weed control at 200 ppm (Phakopsora pachyrhizi)

O=C(Nc1ccccc1F)c1ccc(-c2noc(C(F)(F)F)n2)cc1 [Compound 4a.7, N-(2-fluorophenyl)-4-[5-(trifluoromethyl)-1,2,4-oxadiazol-3-yl]benzamide]
≥ 80%: pest or weed control at 100 ppm (Uromyces viciae-fabae) | pest or weed control at 200 ppm (Phakopsora pachyrhizi)

CC1CCCC(NC(=O)c2ccc(-c3noc(C(F)(F)F)n3)cc2)C1 (centres unmarked) [Compound 2a.2, N-(3-methylcyclohexyl)-4-[5-(trifluoromethyl)-1,2,4-oxadiazol-3-yl]benzamide]
≥ 80%: pest or weed control at 100 ppm (Uromyces viciae-fabae) | pest or weed control at 200 ppm (Phakopsora pachyrhizi)

O=C(NCCCn1ccnc1)c1ccc(-c2noc(C(F)(F)F)n2)cc1F [Compound 5b.12, 2-fluoro-N-(3-imidazol-1-ylpropyl)-4-[5-(trifluoromethyl)-1,2,4-oxadiazol-3-yl]benzamide]
≥ 80%: pest or weed control at 100 ppm (Uromyces viciae-fabae) | pest or weed control at 200 ppm (Phakopsora pachyrhizi)

O=C(Nc1ccc(Cl)cc1)c1ccc(-c2noc(C(F)(F)F)n2)cc1 [Compound 4a.6, N-(4-chlorophenyl)-4-[5-(trifluoromethyl)-1,2,4-oxadiazol-3-yl]benzamide]
≥ 80%: pest or weed control at 100 ppm (Uromyces viciae-fabae) | pest or weed control at 200 ppm (Phakopsora pachyrhizi)

C=CCN(CC)C(=O)c1ccc(-c2noc(C(F)(F)F)n2)cc1F [Compound 3b.30, N-allyl-N-ethyl-2-fluoro-4-[5-(trifluoromethyl)-1,2,4-oxadiazol-3-yl]benzamide]
≥ 80%: pest or weed control at 200 ppm [1] | pest or weed control at 200 ppm [2] | pest or weed control at 200 ppm (Phakopsora pachyrhizi) | inhibition at 20 ppm [3]

O=C(NCCCCCl)c1ccc(-c2noc(C(F)(F)F)n2)cc1F [Compound 3b.20, N-(4-chlorobutyl)-2-fluoro-4-[5-(trifluoromethyl)-1,2,4-oxadiazol-3-yl]benzamide]
≥ 80%: pest or weed control at 200 ppm [1] | pest or weed control at 200 ppm [2] | pest or weed control at 200 ppm (Phakopsora pachyrhizi) | inhibition at 20 ppm [3]

O=C(NCCO)c1ccc(-c2noc(C(F)(F)F)n2)cc1F [Compound 3b.21, 2-fluoro-N-(2-hydroxyethyl)-4-[5-(trifluoromethyl)-1,2,4-oxadiazol-3-yl]benzamide]
≥ 80%: pest or weed control at 200 ppm [1] | pest or weed control at 200 ppm [2] | pest or weed control at 200 ppm (Phakopsora pachyrhizi) | inhibition at 20 ppm [3]

CC(C)OCCNC(=O)c1ccc(-c2noc(C(F)(F)F)n2)cc1 [Compound 3a.40, N-(2-isopropoxyethyl)-4-[5-(trifluoromethyl)-1,2,4-oxadiazol-3-yl]benzamide]
≥ 80%: pest or weed control at 200 ppm [1] | pest or weed control at 200 ppm [2] | pest or weed control at 200 ppm (Phakopsora pachyrhizi) | inhibition at 20 ppm [3]

CC(=O)CC(C)(C)NC(=O)c1ccc(-c2noc(C(F)(F)F)n2)cc1F [Compound 3b.15, N-(1,1-dimethyl-3-oxo-butyl)-2-fluoro-4-[5-(trifluoromethyl)-1,2,4-oxadiazol-3-yl]benzamide]
≥ 80%: pest or weed control at 200 ppm [1] | pest or weed control at 200 ppm [2] | pest or weed control at 200 ppm (Phakopsora pachyrhizi) | inhibition at 20 ppm [3]

COCCN(C(=O)c1ccc(-c2noc(C(F)(F)F)n2)cc1)C(C)C [Compound 3a.12, N-isopropyl-N-(2-methoxyethyl)-4-[5-(trifluoromethyl)-1,2,4-oxadiazol-3-yl]benzamide]
≥ 80%: pest or weed control at 200 ppm [1] | pest or weed control at 200 ppm [2] | pest or weed control at 200 ppm (Phakopsora pachyrhizi) | inhibition at 20 ppm [3]

CC(C)(O)CNC(=O)c1ccc(-c2noc(C(F)(F)F)n2)cc1F [Compound 3b.29, 2-fluoro-N-(2-hydroxy-2-methyl-propyl)-4-[5-(trifluoromethyl)-1,2,4-oxadiazol-3-yl]benzamide]
≥ 80%: pest or weed control at 200 ppm [1] | pest or weed control at 200 ppm [2] | pest or weed control at 200 ppm (Phakopsora pachyrhizi) | inhibition at 20 ppm [3]

C#CCN(C)C(=O)c1ccc(-c2noc(C(F)(F)F)n2)cc1 [Compound 3a.41, N-methyl-N-prop-2-ynyl-4-[5-(trifluoromethyl)-1,2,4-oxadiazol-3-yl]benzamide]
≥ 80%: pest or weed control at 200 ppm [1] | pest or weed control at 200 ppm [2] | pest or weed control at 200 ppm (Phakopsora pachyrhizi) | inhibition at 20 ppm [3]

CN(CCOC(F)F)C(=O)c1ccc(-c2noc(C(F)(F)F)n2)cc1 [Compound 3a.44, N-[2-(difluoromethoxy)ethyl]-N-methyl-4-[5-(trifluoromethyl)-1,2,4-oxadiazol-3-yl]benzamide]
≥ 80%: pest or weed control at 200 ppm [1] | pest or weed control at 200 ppm [2] | pest or weed control at 200 ppm (Phakopsora pachyrhizi) | inhibition at 20 ppm [3]

O=C(Nc1nccnn1)c1ccc(-c2noc(C(F)(F)F)n2)cc1 [Compound 5a.8, N-(1,2,4-triazin-3-yl)-4-[5-(trifluoromethyl)-1,2,4-oxadiazol-3-yl]benzamide]
≥ 80%: pest or weed control at 200 ppm [1] | pest or weed control at 200 ppm [2] | pest or weed control at 200 ppm (Phakopsora pachyrhizi) | inhibition at 20 ppm [3]

CC(C)OCCNC(=O)c1ccc(-c2noc(C(F)(F)F)n2)cc1F [Compound 3b.43, 2-fluoro-N-(2-isopropoxyethyl)-4-[5-(trifluoromethyl)-1,2,4-oxadiazol-3-yl]benzamide]
≥ 80%: pest or weed control at 200 ppm [1] | pest or weed control at 200 ppm [2] | pest or weed control at 200 ppm (Phakopsora pachyrhizi) | inhibition at 20 ppm [3]

CC(C)CCNC(=O)c1ccc(-c2noc(C(F)(F)F)n2)cc1F [Compound 3b.41, 2-fluoro-N-isopentyl-4-[5-(trifluoromethyl)-1,2,4-oxadiazol-3-yl]benzamide]
≥ 80%: pest or weed control at 200 ppm [1] | pest or weed control at 200 ppm [2] | pest or weed control at 200 ppm (Phakopsora pachyrhizi) | inhibition at 20 ppm [3]

CCC(COC)NC(=O)c1ccc(-c2noc(C(F)(F)F)n2)cc1 (centres unmarked) [Compound 3a.9, N-[1-(methoxymethyl)propyl]-4-[5-(trifluoromethyl)-1,2,4-oxadiazol-3-yl]benzamide]
≥ 80%: pest or weed control at 200 ppm [1] | pest or weed control at 200 ppm [2] | pest or weed control at 200 ppm (Phakopsora pachyrhizi) | inhibition at 20 ppm [3]

COCC(C)NC(=O)c1ccc(-c2noc(C(F)(F)F)n2)cc1F (centres unmarked) [Compound 3b.40, 2-fluoro-N-(2-methoxy-1-methyl-ethyl)-4-[5-(trifluoromethyl)-1,2,4-oxadiazol-3-yl]benzamide]
≥ 80%: pest or weed control at 200 ppm [1] | pest or weed control at 200 ppm [2] | pest or weed control at 200 ppm (Phakopsora pachyrhizi) | inhibition at 20 ppm [3]
